Reference: US20060134221A1, “Methods for producing block copolymer/amphiphilic particles” (priority 2004, published 2006)

Columns and labels:
[1] = Dissolution characteristics of BAK homologs in PBS; type: physicochemical
Source text: Stock solutions of benzyldimethyldodecylammonium chloride (BAK C12, Fluka Chemical Corp., Milwaukee, Wis., cat #53233), benzyldimethyltetradecylammonium chloride (BAK C14, TCI America, Portland, Oreg., cat #A0208), benzyldimethylhexadecyllammonium chloride (BAK C16, TCI America, Portland, Oreg., cat #B0237) and benzyldimethyloctadecylammonium chloride (BAK C18, TCI America, Portland, Oreg., cat #B1297) were made in PBS.

[2] = Particle size measurements using photon correlation spectroscopy (mean Z average diameter, polydispersity); type: physicochemical; conditions: for interaction with poloxamer: individual benzalkonium chloride analogs, thermal cycling (Example 1)
Source text: The following examples employ a Malvern 3000 HS Zetasizer to measure particle size. Particles with diameters that range from 1 to 5000 nm, can be measured using the method of photon correlation spectroscopy (PCS). Particles in this size range are in constant random thermal (or Brownian) motion. This motion causes the intensity of light scattered from the particles to form a moving speckle pattern which, with the use of optics and a photomultiplier, can be detected as a change in intensity with time. Large particles move more slowly than small particles, therefore the rate of fluctuation of light scattered from large particles is slower. PCS uses the rate of change of these light fluctuations to determine the size distribution of the particles scattering light. Data is plotted as the auto-correlation function (counts per correlator against delay time). Analysis of this function obtained over time, with a sufficient number of data points, enables the translational diffusion coefficient of the particles undergoing Brownian motion to be calculated. From this coefficient, together with the temperature and viscosity of the suspending liquid, the particle size can be calculated. For aqueous dispersions, the default set-up of the Malvern 3000 HS Zetasizer calculates the viscosity from the temperature. The best single measurement to describe the size of a poloxamer formulation is the mean Z average or the hydrodynamic diameter, which is calculated using cumulants analysis. The polydispersity describes the width of the distribution.
The size of the particles produced was determined using photon correlation spectroscopy. The particle size as reported herein refers to the mean Z average diameter also known as the hydrodynamic diameter. The surface charge of the particles was also determined using micro-electrophoresis.

[3] = Example 9, 269 mg in 70 ml sterile water for injection, homogenized/extruded 10,000 psi, 15° C., 5 passes

SMILES | Dissolution Temperature ([1]; Concentration in PBS 2 mM) | Dissolution Temperature ([1]; Concentration in PBS 5 mM) | interaction with poloxamer [2] | Dissolution Temperature ([1]; Concentration in PBS 1 mM) | formation of small, uniform cell delivery particles with CRL-1005 ([2]; Example 13, thermal cycling method) | formation of cell delivery particles with CRL-1005 and DNA ([2]; thermal cycling method) | Particle size [2, 3] | polydispersity [2, 3]
CCCCCCCCCCCCCCCC[N+](C)(C)Cc1ccccc1.[Cl-] [BAK C16, benzyldimethylhexadecyllammonium chloride] | 45 °C | 45 °C | interact with poloxamer to produce submicron particles with a positive surface charge |  |  |  |  | 
CCCCCCCCCCCCCCCCCC[N+](C)(C)Cc1ccccc1.[Cl-] [BAK C18, benzyldimethyloctadecylammonium chloride] | 45 °C | 45 °C | does interact with poloxamer to produce large micron sized particles with a positive surface charge | 45 °C | does not form small nor uniform cell delivery particles | do not form cell delivery particles |  | 
CCCCCCCCCCCC[N+](C)(C)Cc1ccccc1.[Cl-] [BAK C12, benzyldimethyldodecylammonium chloride] |  |  | does not interact with poloxamer |  |  | do not form cell delivery particles |  | 
CCCCCCCCCCCCCCOCC(C[N+](C)(C)CCO)OCCCCCCCCCCCCCC.[Br-] (racemic) [DMRIE, (±)-N-(2-hydroxyethyl)-N,N-dimethyl-2,3-bis(tetradecyloxy)-1-propanaminium bromide] |  |  |  |  |  |  | 65 nm | 0.21
CCCCCCCCCCCCCC[N+](C)(C)Cc1ccccc1.[Cl-] [BAK C14, benzyldimethyltetradecylammonium chloride] |  | 25 °C | interact with poloxamer to produce submicron particles with a positive surface charge |  |  |  |  | 
